# Counter-ions that a name gives are not always drawn. Like-named read-outs stand apart in the source and are kept apart here.
# Columns and labels:
# MCL-1 = MCL-1 (Homo sapiens, UniProt Q07820, K194A/K197A/R201A); assay: Protein-protein interaction assay MCL-1/Noxa BH3 peptide, TR-FRET (MCL-1 assay, Assay 1); assay type: binding; conditions: MCL-1 Assay [M] (median), MBP-MCL-1 / Noxa BH3 peptide
# Procedure, shortened: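 TR-FRET competition between compounds and a biotin-PEG Noxa BH3 tracer for 1 nM MBP-MCL-1 (residues 173-321). Incubation was 1 h at 22 °C in the dark, then overnight at 4 °C, in 50 mM Tris pH 7 buffer with KF and DTT, after a 10-min compound pre-equilibration. Normalized ratios were fitted with a 4-parameter Hill equation to give IC50.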
# SUDHL5 [1] = assay: Induction of caspase-3/7 activity in SUDHL5 cells (Assay 4); assay type: cell-based; conditions: Homo sapiens, SU-DHL-5, 3 h
# Procedure, shortened: (§1)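 Luminescent Caspase-Glo 3/7 read-out in SUDHL5 and SUDHL10 cells after 3 h compound exposure at 37 °C, followed by 1 h reagent incubation.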
# SUDHL10 [2] = assay: Induction of caspase-3/7 activity in SUDHL10 cells (Assay 4); assay type: cell-based; conditions: Homo sapiens, SU-DHL10, 3 h
# Procedure, shortened: as §1
# SUDHL5 [3] = assay: Induction of cytotoxicity in SUDHL5 cells, CellTiter-Glo (Assay 6); assay type: cell-based; conditions: Homo sapiens, SU-DHL-5, 5 h, SUDHL5, 5 hours incubation, median, read-out: Cytotox SUDHL5 [M] (median)
# Procedure, shortened: (§2)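 Luminescent ATP read-out (CellTiter-Glo) after 5 h compound exposure at 37° C. Cells seeded the day before; medium-only wells as background; rim wells excluded.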
# SUDHL10 [4] = assay: Induction of cytotoxicity in SUDHL10 cells, CellTiter-Glo (Assay 6); assay type: cell-based; conditions: Homo sapiens, SU-DHL10, 5 h, SUDHL10, 5 hours incubation, median, read-out: Cytotox SUDHL10 [M] (median)
# Procedure, shortened: as §2
# SUDHL5 [5] = assay: Anti-proliferative effect in SUDHL5 cells, CellTiter-Glo (Assay 7); assay type: cell-based; conditions: Homo sapiens, SU-DHL-5, 72 h
# Experimental: (§3) Assessment of the Anti-Proliferative Effect of Compounds in Different Cell Lines
# (§4) The impact of compounds on the proliferation of different cell lines was assessed using the CellTiter-Glo® Luminescent Cell Viability reagent from Promega (G7573).
# (§5) In parallel, cells were plated in a reference (day 0) plate for time zero determination. Cells were incubated in a humidified incubator at 37° C. overnight.
# (§6) Rim wells were excluded. The cells were incubated for 72 hours in a humidified incubator at 37° C. The day 0 plate was measured by adding 30 μL/well of CTG solution (CellTiter-Glo® Luminescent Cell Viability reagent, Promega G7573) to time zero wells in the reference plate followed by a 10 minutes incubation and luminescence reading at 0.1 ms. using the PHERAstar FS microplate reader (BMG Labtech).
# (§7) After 72 hours incubation, the treated plates were measured in the same way as the day 0 plate mentioned above. The Bella DRC Master Sheet was used to calculate IC50s, with CI=day 0 values and C0=DMSO control values.
# MV-4-11 = assay: Anti-proliferative effect in MV-4-11 cells, CellTiter-Glo (Assay 7); assay type: cell-based; conditions: Homo sapiens, MV4-11, 72 h, several values per example
# Experimental: as §3, §4, §5, §6, §7
# A2780 = assay: Anti-proliferative effect in A2780 cells, CellTiter-Glo (Assay 7); assay type: cell-based; conditions: Homo sapiens, A2780, 72 h, several values per example
# Experimental: as §3, §4, §5, §6, §7
# AMO-1 = assay: Anti-proliferative effect in AMO-1 cells, CellTiter-Glo (Assay 7); assay type: cell-based; conditions: Homo sapiens, AMO1, 72 h, AMO-1, 72 hours incubation, CellTiter-Glo; several values per example; read-out: Antiproli AMO-1
# Experimental: as §3, §4, §5, §6, §7
# [6] = SUDHL5, 3 hours treatment, Caspase-Glo 3/7, median, read-out: Caspase SUDHL5 [M] (median)
# [7] = SUDHL10, 3 hours treatment, Caspase-Glo 3/7, median, read-out: Caspase SUDHL10 [M] (median)
# [8] = SUDHL5, 72 hours incubation, CellTiter-Glo, median, read-out: Antiproli SUDHL5 [M] (median)
# [9] = MV-4-11, 72 hours incubation, CellTiter-Glo, read-out: Antiproli MV-4-11
# [10] = A2780, 72 hours incubation, CellTiter-Glo, read-out: Antiproli A2780
# Chain of MCL-1 (Q07820 173-321 K194A/K197A/R201A, looked up): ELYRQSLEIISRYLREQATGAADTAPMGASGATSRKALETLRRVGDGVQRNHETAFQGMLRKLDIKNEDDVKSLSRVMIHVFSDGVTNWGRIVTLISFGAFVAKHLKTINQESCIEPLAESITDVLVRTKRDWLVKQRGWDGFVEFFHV
IC50 (MCL-1),EC50 (SUDHL5 [1]; [6]),EC50 (SUDHL10 [2]; [7]),IC50 (SUDHL5 [5]; [8]),IC50 (MV-4-11; [9]),IC50 (A2780; [10]),SMILES,IC50 (SUDHL5 [3]),IC50 (SUDHL10 [4]),IC50 (AMO-1),"EC50 (SUDHL5 [1]; read-out: Caspase SUDHL5 [M] (median), SUDHL5, 3 hours treatment, Caspase-Glo 3/7)","EC50 (SUDHL10 [2]; read-out: Caspase SUDHL10 [M] (median), SUDHL10, 3 hours treatment, Caspase-Glo 3/7)","IC50 (SUDHL5 [5]; read-out: Antiproli SUDHL5 [M] (median), SUDHL5, 72 hours incubation, CellTiter-Glo)","IC50 (MV-4-11; read-out: Antiproli MV-4-11 [M], MV-4-11, 72 hours incubation, CellTiter-Glo)","IC50 (A2780; read-out: Antiproli A2780 [M], A2780, 72 hours incubation, CellTiter-Glo)"
1.8e-07 M,> 3.3e-05 M,> 3.3e-05 M,1.2e-05 M,1.08e-05 M,1.37e-05 M,"COc1cc(CNC(=O)N2Cc3ccccc3Cn3c(C(=O)O)c(CCCOc4cccc5ccccc45)c4cccc(c43)-c3c(nn(C)c3C)C2)cc(OC)c1OC (racemic) [Example 20, (rac)-4,5-Dimethyl-17-[3-(naphthalen-1-yloxy)propyl]-8-[(3,4,5-trimethoxybenzyl)carbamoyl]-7,8,9,14-tetrahydro-5H-indolo[1,7-bc]pyrazolo[4,3-e][2,8]benzodiazacycloundecine-16-carboxylic Acid]",> 3.3e-05 M,> 3.3e-05 M,–,–,–,–,–,–
5.3e-08 M,> 3.3e-05 M,> 3.3e-05 M,> 3.3e-05 M,> 3.3e-05 M,> 3.3e-05 M,"Cc1c2c(nn1C)CN(C(=O)NC1CCOCC1)Cc1ccccc1Cn1c(C(=O)O)c(CCCOc3cccc4ccccc34)c3cccc-2c31 (racemic) [Example 24, (rac)-4,5-Dimethyl-17-[3-(naphthalen-1-yloxy)propyl]-8-(tetrahydro-2H-pyran-4-ylcarbamoyl)-7,8,9,14-tetrahydro-5H-indolo[1,7-bc]pyrazolo[4,3-e][2,8]benzodiazacycloundecine-16-carboxylic Acid]",> 3.3e-05 M,> 3.3e-05 M,–,–,–,–,–,–
3.5e-08 M,2e-05 M,> 3.3e-05 M,1.1e-05 M,8.33e-06 M,1.19e-05 M,"Cc1c2c(nn1C)CN(C(=O)CC1CCOCC1)Cc1ccccc1Cn1c(C(=O)O)c(CCCOc3cccc4ccccc34)c3cccc-2c31 (racemic) [Example 21, (rac)-4,5-Dimethyl-17-[3-(naphthalen-1-yloxy)propyl]-8-(tetrahydro-2H-pyran-4-ylacetyl)-7,8,9,14-tetrahydro-5H-indolo[1,7-bc]pyrazolo[4,3-e][2,8]benzodiazacycloundecine-16-carboxylic Acid]",1.3e-05 M,> 3.3e-05 M,–,–,–,–,–,–
3.1e-08 M,> 3.3e-05 M,> 3.3e-05 M,2.7e-05 M,2.48e-05 M,3.14e-05 M,"Cc1c2c(nn1C)CN(C(=O)NCC1CCOCC1)Cc1ccccc1Cn1c(C(=O)O)c(CCCOc3cccc4ccccc34)c3cccc-2c31 (racemic) [Example 27, (rac)-4,5-Dimethyl-17-[3-(naphthalen-1-yloxy)propyl]-8-[(tetrahydro-2H-pyran-4-ylmethyl)-carbamoyl]-7,8,9,14-tetrahydro-5H-indolo[1,7-bc]pyrazolo[4,3-e][2,8]benzodiazacycloundecine-16-carboxylic Acid]",> 3.3e-05 M,> 3.3e-05 M,–,–,–,–,–,–

# Continued, compound first:
SMILES,IC50 (MCL-1),EC50 (SUDHL5 [1]; [6]),EC50 (SUDHL10 [2]; [7]),IC50 (SUDHL5 [5]; [8]),IC50 (MV-4-11; [9]),IC50 (A2780; [10]),IC50 (SUDHL5 [3]),IC50 (SUDHL10 [4]),IC50 (AMO-1),"EC50 (SUDHL5 [1]; read-out: Caspase SUDHL5 [M] (median), SUDHL5, 3 hours treatment, Caspase-Glo 3/7)","EC50 (SUDHL10 [2]; read-out: Caspase SUDHL10 [M] (median), SUDHL10, 3 hours treatment, Caspase-Glo 3/7)","IC50 (SUDHL5 [5]; read-out: Antiproli SUDHL5 [M] (median), SUDHL5, 72 hours incubation, CellTiter-Glo)","IC50 (MV-4-11; read-out: Antiproli MV-4-11 [M], MV-4-11, 72 hours incubation, CellTiter-Glo)","IC50 (A2780; read-out: Antiproli A2780 [M], A2780, 72 hours incubation, CellTiter-Glo)"
"Cc1c2c(nn1C)CN(S(=O)(=O)CCN1CCOCC1)Cc1ccccc1Cn1c(C(=O)O)c(CCCOc3cccc4ccccc34)c3cccc-2c31 (racemic) [Example 30, (rac)-4,5-Dimethyl-8-{[2-(morpholin-4-yl)ethyl]sulfonyl}-17-[3-(naphthalen-1-yloxy)propyl]-7,8,9,14-tetrahydro-5H-indolo[1,7-bc]pyrazolo[4,3-e][2,8]benzodiazacycloundecine-16-carboxylic Acid]",3.7e-08 M,8.5e-06 M,> 3.3e-05 M,4.6e-06 M,7.85e-06 M,1.71e-05 M,8.6e-06 M,2.9e-05 M,–,–,–,–,–,–
"Cc1c2c(nn1C)COCc1nccnc1Cn1c(C(=O)O)c(CCCOc3cccc4ccccc34)c3ccc(Cl)c-2c31 (racemic) [Example 45, (rac)-3-Chloro-4,5-dimethyl-17-{3-[(naphthalen-1-yl)oxy]propyl}-5,7,9,14-tetrahydropyrazino-[2′,3′:3,4]pyrazolo[4′,3′:9,10][1,6]oxazacycloundecino[8,7,6-hi]indole-16-carboxylic Acid]",–,2.2e-06 M,7.9e-06 M,–,1.19e-05 M,–,2.7e-06 M,8.2e-06 M,9.56 µM,–,–,–,–,–
"Cc1c2c(nn1C)COCc1ccccc1Cn1c(C(=O)O)c(CCCOc3cccc4ccccc34)c3ccc(Cl)c-2c31 (racemic) [Example 36, (rac)-3-Chloro-4,5-dimethyl-17-[3-(naphthalen-1-yloxy)propyl]-5,7,9,14-tetrahydroindolo[7,1-fg]pyrazolo[3,4-d][2,8]benzoxazacycloundecine-16-carboxylic Acid]",3.2e-09 M,2.4e-06 M,5.5e-06 M,3.6e-06 M,1.38e-06 M,2.31e-05 M,3.8e-06 M,4.9e-06 M,–,–,–,–,–,–
"CCc1c2c(nn1C)COCc1ccccc1Cn1c(C(=O)O)c(CCCOC3CCCc4ccccc43)c3ccc(F)c-2c31 (racemic) [Example 92, (rac)-14-Ethyl-15-fluoro-13-methyl-1-(3-((1,2,3,4-tetrahydronaphthalen-1-yl)oxy)propyl)-4,9,11,13-tetrahydrobenzo[3,4]pyrazolo[4′,3′:9,10][1]oxa[6]azacycloundecino[8,7,6-hi]indole-2-carboxylic Acid]",1.8e-08 M,1.5e-05 M,> 3.3e-05 M,> 3.3e-05 M,6.15e-06 M,> 3.3e-05 M,8.1e-06 M,> 3.3e-05 M,–,–,–,–,–,–
"Cc1c2c(nn1C)COCc1ncccc1Cn1c(C(=O)O)c(CCCOc3cccc4ccccc34)c3ccc(Cl)c-2c31 (single isomer, unassigned; enantiomer 2) [Example 44, 3-Chloro-4,5-dimethyl-17-[3-(naphthalen-1-yloxy)propyl]-5,7,9,14-tetrahydropyrazolo-[4′,3′:9,10]pyrido[2′,3′:3,4][1,6]oxazacycloundecino[8,7,6-hi]indole-16-carboxylic acid-N-ethylethanamine Salt (Enantiomer 2)]",5.2e-09 M,–,–,–,–,–,7.9e-06 M,1.5e-05 M,–,7.8e-06 M,1.5e-05 M,5.7e-06 M,1.54e-05 M,2.37e-05 M
"Cc1nn(C)c2c1-c1c(F)ccc3c(CCCOc4ccc(F)c5ccccc45)c(C(=O)O)n(c13)Cc1ccccc1COC2 (racemic) [Example 82, (rac)-15-Fluoro-1-(3-((4-fluoronaphthalen-1-yl)oxy)propyl)-12,14-dimethyl-4,9,11,12-tetrahydrobenzo[3,4]pyrazolo[4′,3′:9,10][1]oxa[6]azacycloundecino[8,7,6-hi]indole-2-carboxylic Acid]",1.2e-08 M,2.2e-05 M,> 3.3e-05 M,1e-05 M,1.45e-05 M,2.85e-05 M,2.4e-05 M,> 3.3e-05 M,–,–,–,–,–,–
"Cc1c2c(nn1C)COCc1cccnc1Cn1c(C(=O)O)c(CCCOc3cccc4ccccc34)c3ccc(Cl)c-2c31 (racemic) [Example 39, (rac)-3-Chloro-4,5-dimethyl-17-[3-(naphthalen-1-yloxy)propyl]-5,7,9,14-tetrahydropyrazolo-[4′,3′:9,10]pyrido[3′,2′:3,4][1,6]oxazacycloundecino[8,7,6-hi]indole-16-carboxylic Acid]",1.6e-09 M,3.7e-06 M,5.7e-06 M,2.4e-06 M,1.56e-05 M,> 3.3e-05 M,3.3e-06 M,6.7e-06 M,–,–,–,–,–,–

# From patent publication US20210253598A1, “ARYL ANNULATED MACROCYCLIC INDOLE DERIVATIVES” (priority 2017, published 2021)
